Experimental findings from article PMC10385579, “Design, Synthesis, and Biological Evaluation of Indole-2-carboxamides as Potential Multi-Target Antiproliferative Agents” (Pharmaceuticals, 2023) are described below.

Data set [1] deals with human epithelial (A-549) cancer cell line. Nature of the data set: Antiproliferative assay, A-549. The format is cell-based. Particulars: A549, read-out: Antiproliferative Activity IC50 ± SEM, A-549. The method, then: (§1) 4.2.1.2. Assay for antiproliferative effect
(§2) To explore the antiproliferative potential of compounds propidium iodide fluorescence assay was performed using different cell lines such as Panc-1 (pancreas cancer cell line), MCF-7 (breast cancer cell line), HT-29 (colon cancer cell line) and A-549 (epithelial cancer cell line), respectively.
(§3) To calculate the total nuclear DNA, a fluorescent dye (propidium iodide, PI) is used which can attach to the DNA, thus offering a quick and precise technique. PI cannot pass through the cell membrane and its signal intensity can be considered as directly proportional to quantity of cellular
(§4) DNA. Cells whose cell membranes are damaged or have changed permeability are counted as dead ones. The assay was performed by seeding the cells of different cell lines at a density of 3000-7500 cells/well (in200μl medium) in culture plates followed by incubation for 24h at 37 °C in humidified 5%CO2/95% air atmospheric conditions. The medium was removed; the compounds were added to the plates at 10 μM concentrations (in 0.1% DMSO) in triplicates, followed by incubation for 48h. DMSO (0.1%) was used as control. After incubation, medium was removed followed by the addition of PI (25 μl, 50μg/mL in water/medium) to each well of the plates. At - 80 °C, the plates were allowed to freeze for 24 h, followed by thawing at 25 °C. A fluorometer (Polar-Star BMG Tech) was used to record the readings at excitation and emission wavelengths of 530 and 620 nm for each well. The percentage cytotoxicity of compounds was calculated using […]
(§5) Where ATC= Absorbance of treated cells and AC= Absorbance of control. Erlotinib was used as positive control in the assay.

Data set [2] concerns pancreatic cancer (Panc-1) cell line. The experiment in a line: Antiproliferative assay, Panc-1. It counts as cell-based. The following applies: Homo sapiens, read-out: Antiproliferative Activity IC50 ± SEM, Panc-1. As to the method: as §1, §2, §3, §4, §5
Data set [3] has as its system breast cancer (MCF-7) cell line. Nature of the data set: Antiproliferative assay, MCF-7. The format is cell-based. Particulars: Homo sapiens, MCF7; read-out: Antiproliferative Activity IC50 ± SEM, MCF-7. The method, then:
as §1, §2, §3, §4, §5

Data set [4] in a line: Cell viability assay (MTT) on MCF-10A. It counts as cell-based. The following applies: human, MCF-10A mammary gland epithelial cells, MCF-10A cells, four days. The method, then: To assess the viability of compounds IV and Va–i, the human mammary gland epithelial (MCF-10A) cell line was exploited. Compounds IV and Va–i were cultured for four days on MCF-10A cells before being evaluated for vitality using the MTT assay.
To test the viability of the new compounds, the human mammary gland epithelial (MCF-10A) cell line was used. Compounds IV and Va–i were incubated on MCF-10A cells for four days before being tested for viability using the MTT assay. See Supplementary Materials.
4.2. Biological evaluation
4.2.1. Cytotoxic activity using MTT Assay and evaluation of IC50
MTT assay was performed to investigate the effect of the synthesized compounds on mammary epithelial cells (MCF-10A). The cells were propagated in medium consisting of Ham's F-12 medium/ Dulbecco's modified Eagle's medium (DMEM) (1:1) supplemented with 10% foetal calf serum, 2 mM glutamine, insulin (10 μg/mL), hydrocortisone (500 ng/mL) and epidermal growth factor (20 ng/mL). Trypsin ethylenediamine tetra acetic acid (EDTA) was used to passage the cells after every 2-3 days. 96-well flat-bottomed cell culture plates were used to seed the cells at a density of 10^4 cells mL-1. The medium was aspirated from all the wells of culture plates after 24 h followed by the addition of synthesized compounds (in 200 μL medium to yield a final concentration of 0.1% (v/v) dimethyl sulfoxide) into individual wells of the plates. Four wells were designated to a single compound. The plates were allowed to incubate at 37°C for 96 h. Afterwards, the medium was aspirated and 3-[4,5-dimethylthiazol-2-yl]-2,5-diphenyltetrazolium bromide (MTT) (0.4 mg/mL) in medium was added to each well and subsequently incubated for 3 h. The medium was aspirated and 150 μL dimethyl sulfoxide (DMSO) was added to each well. The plates were vortexed followed by the measurement of absorbance at 540 nm on a microplate reader. The results were presented as inhibition (%) of proliferation in contrast to controls comprising 0.1%

Data set [5] relates to four human cancer cell lines (A-549, MCF-7, Panc-1, HT-29). Nature of the data set: Antiproliferative assay, average over the four cancer cell lines (GI50). The format is cell-based. Particulars: average of the four cancer cell lines. The method, then:
See Supplementary Materials.
as §1
To explore the antiproliferative potential of compounds propidium iodide fluorescence assay was performed using different cell lines such as Panc-1 (pancreas cancer cell line), MCF-7 (breast […]
as §3
DNA. Cells whose cell membranes are damaged or have changed permeability are counted as dead ones. The assay was performed by seeding the cells of different cell lines at a density of 3000- […]
The medium was removed; the compounds were added to the plates at 10 μM concentrations (in 0.1% DMSO) in triplicates, followed by incubation for 48h. DMSO (0.1%) was used as control. After incubation, medium was removed followed by the addition of PI (25 μl, 50μg/mL in water/medium) to each well of the plates. At - 80 °C, the plates were allowed to freeze for 24 h, followed by thawing at 25 °C. A fluorometer (Polar-Star BMG Tech) was used to record the readings at excitation and emission wavelengths of 530 and 620 nm for each well. The percentage cytotoxicity of compounds was calculated using […]
Where ATC= Absorbance of treated cells and AC= Absorbance of control. […]
positive control in the assay.

Data set [6] has as its system colon cancer (HT-29) cell line. The experiment in a line: Antiproliferative assay, HT-29. Particulars: Homo sapiens, read-out: Antiproliferative Activity IC50 ± SEM, HT-29. The format is cell-based. The method, then: as §1, §2, §3, §4, §5

The term IC50 denotes the concentration needed to halve the response being measured. Broadly, the melting point is the temperature, or range, at which the solid turns liquid. As a reminder, the viability is a read-out of living cells in per cent, often relative to untreated cells. Low values mean a greater loss of cells, high ones better survival. As usually defined, the GI50 is the concentration at which growth is held to half of that of the control. A high value points to less potent growth inhibition.

Each structure is given as a SMILES string.

As for `CCc1c(C(=O)NCC(c2ccccc2)c2c(-c3ccccc3)[nH]c3ccccc23)oc2ccc(Cl)cc12` (stereo not drawn) [Vi, 5-Chloro-3-ethyl-N-(2-phenyl-2-(2-phenyl-1H-indol-3-yl)ethyl)benzofuran-2-carboxamide], the melting point was in the range of 225 to 227 °C. For the same compound, in data set [1], the half-inhibitory concentration (IC50) is 86 ± 8 nM. Moreover, the IC50 in data set [2] was 85 ± 8 nM. Further, the IC50 in data set [3] was found to be 89 ± 8 nM. Besides, the viability at 96 h, 50 µM in data set [4] amounted to 89%. The GI50 in data set [5] worked out at 86 nM. In data set [6], the concentration for half-maximal inhibition (IC50) was 85 ± 8 nM.
The compound `NCC(c1ccccc1)c1c(-c2ccccc2)[nH]c2ccccc12` (stereo not drawn) [Compound IV, 2-phenyl-2-(2-phenyl-1H-indol-3-yl)ethan-1-amine] returned a melting point of 167 to 169 °C. In addition, in data set [1], the IC50 came to 102 ± 10 nM. Besides, the IC50 in data set [2] was 104 ± 10 nM. Besides, the half-inhibitory concentration (IC50) in data set [3] was 106 ± 10 nM. The compound also registered a viability at 96 h, 50 µM in data set [4] of 92%. The compound also displayed a concentration for 50% growth inhibition (GI50) in data set [5] of 104 nM. In addition, the half-maximal inhibitory concentration (IC50) in data set [6] turned out to be 104 ± 10 nM.
Compound `CCc1c(C(=O)NCC(c2ccccc2)c2c(-c3ccccc3)[nH]c3ccccc23)[nH]c2ccc(Br)cc12` (stereo not drawn) [Vd, 5-Bromo-3-ethyl-N-(2-phenyl-2-(2-phenyl-1H-indol-3-yl)ethyl)-1H-indole-2-carboxamide] displayed a melting point of 130 to 132 °C. Moreover, the IC50 in data set [1] came to 64 ± 6 nM. In data set [2], the concentration for half-maximal inhibition (IC50) was 66 ± 6 nM. In addition, the IC50 in data set [3] came out at 68 ± 6 nM. In data set [4], the viability at 96 h, 50 µM is 89%. The compound also came in with a 50% growth inhibitory concentration (GI50) in data set [5] of 66 nM. The concentration for half-maximal inhibition (IC50) in data set [6] came to 66 ± 6 nM.
For the compound `Cc1c(C(=O)NCC(c2ccccc2)c2c(-c3ccccc3)[nH]c3ccccc23)[nH]c2ccc(Cl)cc12` (stereo not drawn) [Vb, 5-Chloro-3-methyl-N-(2-phenyl-2-(2-phenyl-1H-indol-3-yl)ethyl)-1H-indole-2-carboxamide], the melting point lay within 135 to 137 °C. For the same compound, the IC50 in data set [1] came out at 58 ± 5 nM. In data set [2], the IC50 is 58 ± 5 nM. In data set [3], the half-inhibitory concentration (IC50) turned out to be 61 ± 6 nM. Moreover, the viability at 96 h, 50 µM in data set [4] amounted to 88%. The compound further registered a 50% growth inhibitory concentration (GI50) in data set [5] of 59 nM. Further, the IC50 in data set [6] came out at 59 ± 5 nM.
In turn, `CCc1c(C(=O)NCC(c2ccccc2)c2c(-c3ccccc3)[nH]c3ccccc23)[nH]c2ccc(Cl)cc12` (stereo not drawn) [Compound Vc, 5-Chloro-3-ethyl-N-(2-phenyl-2-(2-phenyl-1H-indol-3-yl)ethyl)-1H-indole-2-carboxamide] yielded a melting point of 110 to 112 °C. Further, the IC50 in data set [1] was determined as 54 ± 5 nM. In data set [2], the half-inhibitory concentration (IC50) was found to be 56 ± 5 nM. Moreover, the 50% inhibitory concentration (IC50) in data set [3] amounted to 57 ± 5 nM. Moreover, in data set [4], the viability at 96 h, 50 µM is 91%. Also, growth in data set [5] was halved (GI50) at 56 nM. Besides, the 50% inhibitory concentration (IC50) in data set [6] was 55 ± 5 nM.
Regarding `C#Cc1cccc(Nc2ncnc3cc(OCCOC)c(OCCOC)cc23)c1` [Erlotinib, reference compound], the IC50 in data set [1] is 30 ± 3 nM; in data set [2] it was 30 ± 3 nM; in data set [3], 40 ± 3 nM; in data set [6], 30 ± 3 nM.
